Measurements reported in ChEMBL document CHEMBL4602656, “Synthesis and evaluation of 4-(1,3,4-oxadiazol-2-yl)-benzenesulfonamides as potent carbonic anhydrase inhibitors” (Bioorg Med Chem Lett, 2020).
The source made the active and inactive calls. The rule behind the calls is not given here.

What was measured:
[1] = Solubility of compound; assay type: physicochemical
HEK-293T = assay: Cytotoxicity against human HEK293T cells assessed as reduction in cell viability at 5 to 200 uM incubated for 48 hrs by MTS assay; assay type: cell-based
Mus musculus = assay: Anti-hypoxia in mouse assessed as increase in mouse survival at 400 mg/kg, po administered for 3 days and observed upto day 3 after dosing of 1.5 hrs; assay type: functional, organism-based

In the case of Cc1ccc(-c2nnc(-c3ccc(S(N)(=O)=O)cc3)o2)c(C)c1, the solubility [1] is reported as “Insoluble” and the Activity (HEK-293T) is reported as “Non-Toxic”.

With NS(=O)(=O)c1ccc(-c2nnc(-c3cccc(Cl)c3Cl)o2)cc1 the solubility [1] was “Insoluble” and the Activity (HEK-293T) was “Non-Toxic”.

For CC(=O)Nc1nnc(S(N)(=O)=O)s1 [ACETAZOLAMIDE], the Activity (HEK-293T) was “Non-Toxic” and the Activity (Mus musculus) was “Active”.

With CN(C)c1ccc(-c2nnc(-c3ccc(S(N)(=O)=O)cc3)o2)cc1.CS(=O)(=O)O the Activity (HEK-293T) was “Non-Toxic” and the Activity (Mus musculus) was “Active”.
